ChEMBL document CHEMBL4811234, “Dihydro-β-agarofuran-Type Sesquiterpenoids from the Seeds of Celastrus virens and Their Multidrug Resistance Reversal Activity against the KB/VCR Cell Line” (J Nat Prod, 2021)

Legend:
[1] = Cytotoxicity against human KB/VCR cells assessed as inhibition of cell proliferation at 20 uM measured after 72 hrs by CCK8 assay relative to control; type: cell-based
[2] = Cytotoxicity against human KB/VCR cells assessed as inhibition of cell proliferation at 2 uM measured after 72 hrs by CCK8 assay relative to control; type: cell-based

SMILES	inhibition at 72 h, 20 µM [1]	inhibition at 72 h, 2 µM [2]
CC(=O)OC[C@]12[C@H](OC(C)=O)C(=O)[C@@H]3[C@@H](O)[C@]1(OC3(C)C)[C@H](C)[C@@H](O)[C@H](OC(C)=O)[C@@H]2OC(C)=O	1.5%	-0.5%
CC(=O)O[C@@H]1[C@@H]2[C@@H](OC(C)=O)[C@]3(OC2(C)C)[C@H](C)C[C@@H](OC(C)=O)[C@H](OC(C)=O)[C@@]3(C)[C@@H]1OC(=O)c1ccccc1	-1.5%	2.7%
CC(=O)O[C@H]1CC[C@@H](C)[C@]23OC(C)(C)[C@H](C[C@H](OC(=O)c4ccccc4)[C@]12C)[C@H]3OC(=O)c1ccccc1	77.9%	-1.8%
CC(=O)O[C@@H]1[C@H]2[C@H](O)[C@H](OC(=O)c3ccccc3)[C@]3(C)[C@@H](OC(C)=O)[C@H](O)C[C@@H](C)[C@@]13OC2(C)C	-2.1%	-1.9%
CC(=O)O[C@H]1CC[C@@H](C)[C@]23OC(C)(C)[C@H](C[C@H](OC(=O)c4ccccc4)[C@]12C)[C@H]3OC(C)=O	0.7%	-1.1%
CCCCCC(=O)O[C@@H]1[C@@H]2[C@@H](OC(C)=O)[C@]3(OC2(C)C)[C@H](C)C[C@@H](OC(C)=O)[C@H](OC(C)=O)[C@@]3(C)[C@H]1OC(=O)c1ccccc1	-1.9%	-3.1%
COc1cc2c(cc1OC)CN(CCc1ccc(-n3nnc(-c4cc(OC)c(OC)cc4NC(=O)c4cc(=O)c5ccccc5o4)n3)cc1)CC2		23.1%
CC(=O)O[C@H]1[C@@H]2[C@@H](OC(C)=O)[C@]3(OC2(C)C)[C@H](C)C[C@@H](OC(C)=O)[C@H](OC(C)=O)[C@@]3(C)[C@H]1OC(=O)c1ccccc1	-2%	-1.2%
CC(=O)OC[C@]12[C@H](OC(C)=O)C(=O)[C@@H]3[C@@H](O)[C@]1(OC3(C)C)[C@H](C)[C@@H](OC(C)=O)[C@H](OC(C)=O)[C@@H]2OC(C)=O	2.6%	1.6%
CC(=O)O[C@H]1[C@@H]2[C@@H](OC(=O)c3cccnc3)[C@]3(OC2(C)C)[C@H](C)C[C@H](OC(C)=O)[C@@H](OC(C)=O)[C@@]3(C)[C@H]1OC(=O)c1ccccc1	-6.7%	-3%
CC(=O)O[C@H]1[C@@H]2[C@@H](OC(=O)/C=C/c3ccccc3)[C@]3(OC2(C)C)[C@H](C)C[C@@H](OC(C)=O)[C@H](OC(C)=O)[C@@]3(C)[C@H]1OC(=O)c1ccccc1	-3%	-0.6%
CC(=O)OC[C@]12[C@H](OC(C)=O)C(=O)[C@@H]3[C@@H](OC(C)=O)[C@]1(OC3(C)C)[C@H](C)C[C@H](O)[C@@H]2OC(C)=O	2.6%	-2%
CC(=O)O[C@H]1C[C@@H](C)[C@]23OC(C)(C)[C@H](C[C@H](OC(=O)c4ccccc4)[C@@]2(C)[C@@H]1OC(C)=O)[C@H]3OC(=O)c1ccccc1	57.9%	0%
CC(=O)O[C@@H]1[C@@H]2[C@@H](OC(C)=O)[C@]3(OC2(C)C)[C@H](C)C[C@H](OC(=O)/C=C/c2ccccc2)[C@H](OC(C)=O)[C@@]3(C)[C@@H]1OC(=O)c1ccccc1	-12.8%	0.7%
CC(=O)O[C@@H]1C[C@@H](C)[C@]23OC(C)(C)[C@H](C[C@H](OC(=O)c4ccccc4)[C@]2(C)[C@H]1OC(C)=O)[C@H]3OC(=O)/C=C/c1ccccc1	81.8%	-5.3%
CC(=O)OC[C@]12[C@H](OC(C)=O)C(=O)[C@@H]3[C@@H](OC(C)=O)[C@]1(OC3(C)C)[C@H](C)[C@@H](O)[C@H](OC(C)=O)[C@@H]2OC(C)=O	9.2%	-5.3%
CC(=O)O[C@@H]1C[C@@H](C)[C@]23OC(C)(C)[C@H]([C@@H](O)[C@H](OC(=O)c4ccccc4)[C@@]2(C)[C@H]1OC(C)=O)[C@H]3OC(=O)/C=C/c1ccccc1	78.7%	3.3%
CC(=O)O[C@@H]1[C@@H]2[C@@H](OC(C)=O)[C@]3(OC2(C)C)[C@H](C)CC[C@H](OC(C)=O)[C@@]3(C)[C@@H]1OC(=O)c1ccccc1	2.4%	1.6%
CC(=O)O[C@H]1[C@@H]2[C@@H](OC(=O)/C=C/c3ccccc3)[C@]3(OC2(C)C)[C@H](C)C[C@H](O)[C@H](OC(C)=O)[C@@]3(C)[C@H]1OC(=O)c1ccccc1	76.9%	-20.3%
CC(=O)O[C@@H]1[C@@H]2[C@@H](OC(C)=O)[C@]3(OC2(C)C)[C@H](C)CC[C@H](OC(C)=O)[C@@]3(C)[C@H]1OC(=O)c1ccccc1	3.2%	2.4%
